For experiment [1], the system named is c-jun expression in DT-40 chicken lymphoma B-cells. Kind of experiment: Radiation-induced c-jun mRNA expression by Northern blot. Particulars: DT-40 cells. Also on record: unit of the concentration uncertain. In kind it is cell-based. On the procedure: FIGS. 1A and 1B. Radiation-induced c-jun activation in wild-type DT-40 lymphoma B-cells. [A]. Dose reponse for induction of c-jun mRNA. DT-40 chicken cells were irradiated at the indicated doses (0, 10, 15, 20 Gy). Total RNA was extracted after a 2 hours or 4 hours post-irradiation time period. RNA ([…]) was loaded on a Northern gel and transferred by capillary blotting to a nylon membrane. The Northern blot was hybridized with a ^32P labeled chicken c-jun probe (top panel) or a chicken GAPDH probe (bottom panel). […] Effect of the PTK inhibitor genistein on induction of c-jun mRNA. Cells were treated with […] of genistein for 24 hours at 37° C. prior to exposure to 20 Gy ionizing radiation. c-jun expression levels were determined as in [A].
FIG. 5. Effects of a JAK-3 inhibitor on c-jun induction in irradiated DT-40 cells. Cells were treated with the quinazoline derivative 4(3′-Bromo-4′-hydroxyl-phenyl)-amino-6,7-dimethoxyquinazoline ([…]) for 24 hours at 37° C. prior to exposure to 20 Gy ionizing radiation. c-jun expression levels were determined as outlined in FIGS. 1-3. […]
A 506 basepair (bp) c-jun probe was obtained by polymerase chain reaction (PCR) amplification of chicken genomic DNA. Primer sequences were determined based upon the sequence of chicken c-jun (GenBank accession code CHKJUN). […]

Experiment [2] deals with IL-2 triggered JAK-3-dependent STAT activation. Put plainly: EMSA of IL-2 triggered STAT activation in 32Dc11-IL-2Rβ cells. Particulars: 100 (g/ml, EMSA (FIG. 4C legend)). In kind it is cell-based. On the procedure: (§1) FIGS. 4B1-B4. JAK-3 Inhibitors. [A]. Structures of JAK-3 inhibitors. [B] Specificity of JAK-3 inhibitors. Sf21 cells infected with baculovirus expression vectors for JAK-1 JAK-2 or JAK-3 were subjected to immunoprecipitation with anti-JAK antibodies. JAK-1 (shown in B.1), JAK-2 (shown in B.2) and JAK-3 (shown in B.3 and B.4 which illustrate results from 2 independent experiments) immune complexes were treated with 1% DMSO (vehicle control=CON), Compound 1, or Compound 2 for 1 hour prior to hot kinase assays, as described (20,22). […] EMSAs of […]-IL-2Rβ cells. Compound 1(100 (g/ml) and Compound 2 (100 (g/ml) inhibited IL-2 triggered JAK-3-dependent STAT activation but not IL-3-triggered JAK-1/JAK-2-dependent STAT activation in 32Dc11-IL-2Rβ cells.
Electrophoretic Mobility Shift Assays (EMSAs) were performed to examine the effects of both compounds on cytokine-induced STAT activation. Specifically, 32Dc11/IL2Rβ cells (gift from James Ihle, St. Jude Children's Research Hospital) were exposed at 8×10^6/ml in RPMI supplemented with FBS to the JAK-3 inhibitors at a final concentration of 10 μg/ml in 1% DMSO) for 1 hour and subsequently stimulated with IL2 or IL3 as indicated. […]

The target in experiment [3] is T1, JAK-3 (Homo sapiens, UniProt P52333).
T1 construct: made in house; host or cells: Sf21 insect cells (baculovirus)
T1 sequence (P52333 1-1124): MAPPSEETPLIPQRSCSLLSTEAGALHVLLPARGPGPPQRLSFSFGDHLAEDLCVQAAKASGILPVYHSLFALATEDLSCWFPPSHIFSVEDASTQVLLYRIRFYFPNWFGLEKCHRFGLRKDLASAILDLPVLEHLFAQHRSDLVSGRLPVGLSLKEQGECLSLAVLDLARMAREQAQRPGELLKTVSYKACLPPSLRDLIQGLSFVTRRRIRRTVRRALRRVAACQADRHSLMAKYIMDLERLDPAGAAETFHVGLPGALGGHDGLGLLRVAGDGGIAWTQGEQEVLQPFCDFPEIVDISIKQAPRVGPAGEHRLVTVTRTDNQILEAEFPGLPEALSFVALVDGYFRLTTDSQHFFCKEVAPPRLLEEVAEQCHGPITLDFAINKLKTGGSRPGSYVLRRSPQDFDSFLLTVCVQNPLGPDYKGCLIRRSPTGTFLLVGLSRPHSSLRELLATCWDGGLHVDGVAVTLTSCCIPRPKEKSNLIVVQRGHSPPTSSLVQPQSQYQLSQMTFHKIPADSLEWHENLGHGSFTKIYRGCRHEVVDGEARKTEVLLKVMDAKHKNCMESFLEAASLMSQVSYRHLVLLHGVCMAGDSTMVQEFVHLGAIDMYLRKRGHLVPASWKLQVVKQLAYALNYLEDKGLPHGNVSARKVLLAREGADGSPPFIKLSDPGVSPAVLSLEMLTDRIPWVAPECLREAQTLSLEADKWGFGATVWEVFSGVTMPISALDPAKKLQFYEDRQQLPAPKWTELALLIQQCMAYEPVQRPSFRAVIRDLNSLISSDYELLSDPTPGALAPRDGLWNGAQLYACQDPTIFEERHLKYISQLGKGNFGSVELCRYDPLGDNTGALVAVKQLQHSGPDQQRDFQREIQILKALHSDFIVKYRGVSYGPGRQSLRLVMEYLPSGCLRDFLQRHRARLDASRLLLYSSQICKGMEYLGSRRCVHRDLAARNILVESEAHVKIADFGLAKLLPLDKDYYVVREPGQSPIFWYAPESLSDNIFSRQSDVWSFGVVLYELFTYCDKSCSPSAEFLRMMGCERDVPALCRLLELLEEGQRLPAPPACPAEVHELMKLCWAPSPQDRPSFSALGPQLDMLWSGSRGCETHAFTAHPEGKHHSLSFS
Put plainly: Immune complex hot kinase assay of JAK-3 immunoprecipitated from baculovirus-infected Sf21 cells. Format: biochemical. Conditions: 10 μg/ml, 1 hour exposure of immune complexes before kinase assay. On the procedure:
as §1
(§2) After establishing that LYN, BTK, and SYK kinases are not required for radiation-induced c-jun activation, we set out to determine if c-jun activation is functionally linked to the JAK-STAT pathway. To this end, we examined the effects of a JAK-3 inhibitory novel quinazoline derivative on c-jun expression levels in irradiated DT-40 cells. To identify a potent JAK-3 specific inhibitor, the effects of two novel quinazoline derivatives on the enzymatic activity of JAK-1, JAK-2, and JAK-3 were examined using Sf21 cells that were infected with baculovirus expression vectors for these kinases, using standard methods (FIG. 4). […]

In experiment [4] the target is T2, JAK-2 (Homo sapiens, UniProt O60674).
T2 construct: made in house; host or cells: Sf21 insect cells (baculovirus)
Put plainly: Immune complex hot kinase assay of JAK-2 immunoprecipitated from baculovirus-infected Sf21 cells. In kind it is biochemical. Particulars: even at 75 μg/ml, 1 hour exposure of immune complexes before kinase assay. On the procedure:
as §1, §2

The target in experiment [5] is T3, JAK-1 (Homo sapiens, UniProt P23458).
T3 construct: made in house; host or cells: Sf21 insect cells (baculovirus)
Put plainly: Immune complex hot kinase assay of JAK-1 immunoprecipitated from baculovirus-infected Sf21 cells. Particulars: even at 75 μg/ml, 1 hour exposure of immune complexes before kinase assay. Format: biochemical. On the procedure: as §1, §2

T2 sequence (O60674 whole entry, species assumed): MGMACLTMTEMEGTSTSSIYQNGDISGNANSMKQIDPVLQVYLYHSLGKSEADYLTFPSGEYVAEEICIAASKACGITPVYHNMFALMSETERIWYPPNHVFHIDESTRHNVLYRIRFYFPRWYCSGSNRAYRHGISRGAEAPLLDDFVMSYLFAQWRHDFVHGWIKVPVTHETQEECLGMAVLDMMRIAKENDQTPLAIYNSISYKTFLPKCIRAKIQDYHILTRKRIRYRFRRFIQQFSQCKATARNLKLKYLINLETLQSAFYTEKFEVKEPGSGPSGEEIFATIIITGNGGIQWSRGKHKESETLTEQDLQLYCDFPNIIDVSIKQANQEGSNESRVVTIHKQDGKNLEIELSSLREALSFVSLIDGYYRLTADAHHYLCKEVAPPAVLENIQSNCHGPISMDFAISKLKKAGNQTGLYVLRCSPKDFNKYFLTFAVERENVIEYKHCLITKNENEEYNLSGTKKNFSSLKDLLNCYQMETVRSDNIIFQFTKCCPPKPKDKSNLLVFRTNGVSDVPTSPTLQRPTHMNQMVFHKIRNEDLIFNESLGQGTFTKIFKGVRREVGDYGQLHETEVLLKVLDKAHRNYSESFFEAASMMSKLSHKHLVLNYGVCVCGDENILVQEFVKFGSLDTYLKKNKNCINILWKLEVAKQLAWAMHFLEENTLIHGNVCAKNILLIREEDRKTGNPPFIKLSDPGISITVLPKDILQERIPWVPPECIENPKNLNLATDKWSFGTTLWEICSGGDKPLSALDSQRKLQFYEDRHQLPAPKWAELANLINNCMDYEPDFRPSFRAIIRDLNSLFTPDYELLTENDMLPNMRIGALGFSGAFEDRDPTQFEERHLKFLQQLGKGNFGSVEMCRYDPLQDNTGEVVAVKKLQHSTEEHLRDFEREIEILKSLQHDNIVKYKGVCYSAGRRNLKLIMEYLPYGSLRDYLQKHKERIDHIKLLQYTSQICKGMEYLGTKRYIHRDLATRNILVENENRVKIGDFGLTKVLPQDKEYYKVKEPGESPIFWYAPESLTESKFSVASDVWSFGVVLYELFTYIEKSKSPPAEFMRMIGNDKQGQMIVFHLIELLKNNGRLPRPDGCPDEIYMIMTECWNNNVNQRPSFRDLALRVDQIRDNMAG
T3 sequence (P23458 whole entry, species assumed): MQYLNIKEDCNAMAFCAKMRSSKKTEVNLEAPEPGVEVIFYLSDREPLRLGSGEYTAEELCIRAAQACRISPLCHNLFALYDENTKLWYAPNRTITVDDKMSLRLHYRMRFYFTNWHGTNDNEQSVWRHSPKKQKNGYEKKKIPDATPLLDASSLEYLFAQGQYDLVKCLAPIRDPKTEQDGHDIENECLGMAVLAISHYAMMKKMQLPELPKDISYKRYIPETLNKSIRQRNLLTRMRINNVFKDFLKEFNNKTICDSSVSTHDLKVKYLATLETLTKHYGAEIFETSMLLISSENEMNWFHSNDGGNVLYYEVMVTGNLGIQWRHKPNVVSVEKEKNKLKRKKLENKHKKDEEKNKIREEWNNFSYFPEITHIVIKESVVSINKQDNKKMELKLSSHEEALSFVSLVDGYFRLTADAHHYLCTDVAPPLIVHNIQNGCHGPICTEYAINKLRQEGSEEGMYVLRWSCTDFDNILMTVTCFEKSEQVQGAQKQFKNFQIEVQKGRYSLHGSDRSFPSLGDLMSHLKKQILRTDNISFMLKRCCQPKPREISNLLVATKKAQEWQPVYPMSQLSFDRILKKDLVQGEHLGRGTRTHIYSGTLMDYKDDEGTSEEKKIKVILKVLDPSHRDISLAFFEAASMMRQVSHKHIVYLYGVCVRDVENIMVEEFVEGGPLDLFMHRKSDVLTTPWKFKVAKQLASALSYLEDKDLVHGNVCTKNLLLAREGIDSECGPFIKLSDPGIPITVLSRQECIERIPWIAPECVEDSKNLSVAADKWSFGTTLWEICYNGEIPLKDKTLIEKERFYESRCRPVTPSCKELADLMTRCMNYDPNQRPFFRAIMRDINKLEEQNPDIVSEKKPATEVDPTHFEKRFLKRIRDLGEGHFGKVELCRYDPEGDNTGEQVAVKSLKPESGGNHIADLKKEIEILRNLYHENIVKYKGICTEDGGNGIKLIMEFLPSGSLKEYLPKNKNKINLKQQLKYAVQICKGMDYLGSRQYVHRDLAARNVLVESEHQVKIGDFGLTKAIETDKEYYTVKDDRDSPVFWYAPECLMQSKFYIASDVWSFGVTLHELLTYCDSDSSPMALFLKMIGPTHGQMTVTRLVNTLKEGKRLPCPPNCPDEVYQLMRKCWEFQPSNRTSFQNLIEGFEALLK

For the molecule `O=c1c(-c2ccc(O)cc2)coc2cc(O)cc(O)c12` [genistein, reference compound], the “stimulation index (c-jun/GAPDH ratio, irradiated versus non-irradiated cells)” value in experiment [1] (30 (unit uncertain) for 24 hours at 37° C. before 20 Gy ionizing radiation) was found to be 1.1.

Regarding `COc1cc2ncnc(Nc3ccc(O)c(Br)c3)c2cc1OC` [Compound 2, 4-(3′-Bromo-4′-hydroxylphenyl)-amino-6,7-dimethoxy-quinazoline], the “inhibition of IL-2 triggered JAK-3-dependent STAT activation” value in experiment [2] is “inhibited”. Moreover, in experiment [3], the “inhibition of JAK-3 enzymatic activity” value was “inhibited”. In addition, the “inhibition of JAK-2 enzymatic activity” value in experiment [4] was “did not inhibit”. Moreover, the “induction of c-jun expression by ionizing radiation in treated cells” value in experiment [1] (100 (unit uncertain) for 24 hours at 37° C. before 20 Gy ionizing radiation) is reported as “failed to induce c-jun expression”. Also, in experiment [5], the “inhibition of JAK-1 enzymatic activity” value is reported as “did not inhibit”.

In the case of `COc1cc2ncnc(Nc3ccc(O)cc3)c2cc1OC` [Compound 1, 4-(4′-Hydroxylphenyl)-amino-6,7-dimethoxy-quinazoline], the “inhibition of IL-2 triggered JAK-3-dependent STAT activation” value in experiment [2] was “inhibited”. The “inhibition of JAK-3 enzymatic activity” value in experiment [3] was “inhibited”. Besides, the “inhibition of JAK-2 enzymatic activity” value in experiment [4] was “did not inhibit”. Further, the “inhibition of JAK-1 enzymatic activity” value in experiment [5] is “did not inhibit”.
